From paper PMC4076177, “Soluble Phosphatidylserine Binds to Two Sites on Human Factor IXa in a Ca^2+ Dependent Fashion to Specifically Regulate Structure and Activity” (PLoS ONE, 2014) come the findings set out here.

T1 sequence (P00740 47-191): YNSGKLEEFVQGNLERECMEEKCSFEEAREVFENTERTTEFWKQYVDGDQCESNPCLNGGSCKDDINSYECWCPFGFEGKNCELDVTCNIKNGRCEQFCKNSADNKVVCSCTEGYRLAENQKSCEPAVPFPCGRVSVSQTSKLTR
T1 sequence (P00740 227-461): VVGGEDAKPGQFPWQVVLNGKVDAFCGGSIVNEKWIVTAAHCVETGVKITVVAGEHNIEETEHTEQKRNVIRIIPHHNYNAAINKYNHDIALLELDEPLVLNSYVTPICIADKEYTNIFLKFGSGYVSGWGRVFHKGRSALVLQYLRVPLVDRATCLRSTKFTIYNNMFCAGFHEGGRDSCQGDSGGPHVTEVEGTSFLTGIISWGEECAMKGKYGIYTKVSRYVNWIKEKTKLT

The first assay addresses T1, Human FIXa (Homo sapiens, UniProt P00740).
T1 construct: gene F9; purchased from Haematologic Technologies, no tag stated
The assay can be described thus: intrinsic fluorescence titration, single-site hyperbolic fit. Particulars: 5 mM CaCl2, 0.20 µM FIXa, 50 mM Tris, 150 mM NaCl, 0.6% PEG, pH 7.5, 22°C; unreliable (Figure 2 legend prints 2000 µM). The assay is classed as binding. The source says: intrinsic fluorescence titration, single-site hyperbolic fit on Human FIXa
`CCCCCC(=O)OC[C@H](COP(=O)([O-])OCC[N+](C)(C)C)OC(=O)CCCCC` [C6PC]: the “Kd, μM (determined by monitoring change in intrinsic fluorescence)” value amounted to 1000 ± 45 µM.

Staying with this assay, now noted: read-out: Kd, μM (determined by monitoring change in intrinsic fluorescence).
In general, Kd refers to the concentration at which binding is half-saturated. On to `CCCCCC(=O)OC[C@H](COP(=O)(O)OC[C@@H](N)C(=O)O)OC(=O)CCCCC` [C6(D)PS], for which the Kd was 208 ± 18 µM. In the case of `CCCCCC(=O)OC[C@H](COP(=O)(O)O)OC(=O)CCCCC` [C6PA], the equilibrium dissociation constant (Kd) amounted to 238 ± 42.7 µM. Take `CCCCCC(=O)OC[C@H](COP(=O)(O)OCCN)OC(=O)CCCCC` [C6PE]: the Kd is 66 ± 7 µM. As to `CCCCCC(=O)OC[C@H](COP(=O)(O)OC[C@H](N)C(=O)O)OC(=O)CCCCC` [C6PS, 1,2-dicaproyl-sn-glycero-3-phospho-L-serine], the Kd worked out at 1.3 ± 0.2 µM. On the same count and under the same terms, in the case of `CCCCCC(=O)OC[C@H](COP(=O)(O)OCC(O)CO)OC(=O)CCCCC` (stereo partly drawn) [C6PG] it was 307 ± 28.8 µM.
